Test results reported in patent publication US8957064B2, “Fused pyrimidines” (Bayer Intellectual Property GmbH, priority 2009, dated 2015).

How the values were obtained:
[1] = molecular target: His-tagged human recombinant kinase full-length Akt1 (Homo sapiens (Human), UniProt P31749); assay: Akt1 kinase assay (Akt1 TR-FRET assay, Biological Assay 1.0); type: biochemical; conditions: 10 μM ATP, 1 μM biotinylated peptide substrate, 60 min at 22° C.
Method in brief: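 Insect-cell-expressed full-length His-Akt1 (~0.05 ng/μl) preincubated 15 min with compound, then reacted 60 min at 22 °C with 10 μM ATP and 1 μM biotinylated peptide (final), pH 7.5. Phosphopeptide detected by HTRF (665/620 nm ratio). Data normalised to no-inhibitor and no-enzyme controls.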

[2] = molecular target: His-tagged human recombinant kinase full-length Akt2 activated by PDK1 (Homo sapiens (Human), UniProt P31751); assay: Akt2 kinase assay (Akt2 TR-FRET assay, Biological Assay 2.0); type: biochemical; conditions: 10 μM ATP, 1 μM biotinylated peptide substrate, 60 min at 22° C.
His-tagged human recombinant kinase full-length Akt2 activated by PDK1, sequence (P31751 whole entry): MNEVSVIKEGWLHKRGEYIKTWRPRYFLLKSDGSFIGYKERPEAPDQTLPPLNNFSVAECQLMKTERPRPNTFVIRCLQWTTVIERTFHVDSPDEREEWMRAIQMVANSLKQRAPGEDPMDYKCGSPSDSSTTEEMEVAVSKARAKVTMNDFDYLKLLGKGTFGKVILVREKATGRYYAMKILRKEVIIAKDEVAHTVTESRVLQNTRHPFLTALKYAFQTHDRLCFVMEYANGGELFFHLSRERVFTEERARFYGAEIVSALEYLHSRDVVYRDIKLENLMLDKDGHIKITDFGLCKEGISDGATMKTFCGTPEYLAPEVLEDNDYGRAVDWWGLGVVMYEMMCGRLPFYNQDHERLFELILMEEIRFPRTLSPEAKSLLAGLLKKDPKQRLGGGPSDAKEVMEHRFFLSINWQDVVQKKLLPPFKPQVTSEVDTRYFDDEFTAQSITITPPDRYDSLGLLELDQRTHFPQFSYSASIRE
Method in brief: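 Compound was pre-incubated with enzyme (~0.2 ng/µl final) for 15 min at 22 °C in Tris pH 7.5, 5 mM MgCl2, then reacted 60 min with 10 µM ATP and 1 µM biotinylated peptide. Phosphopeptide was detected by TR-FRET (665/622 nm ratio). Data were normalised to no-inhibitor (0%) and no-enzyme (100%) controls.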

His-tagged human recombinant kinase full-length Akt1, sequence (P31749 whole entry): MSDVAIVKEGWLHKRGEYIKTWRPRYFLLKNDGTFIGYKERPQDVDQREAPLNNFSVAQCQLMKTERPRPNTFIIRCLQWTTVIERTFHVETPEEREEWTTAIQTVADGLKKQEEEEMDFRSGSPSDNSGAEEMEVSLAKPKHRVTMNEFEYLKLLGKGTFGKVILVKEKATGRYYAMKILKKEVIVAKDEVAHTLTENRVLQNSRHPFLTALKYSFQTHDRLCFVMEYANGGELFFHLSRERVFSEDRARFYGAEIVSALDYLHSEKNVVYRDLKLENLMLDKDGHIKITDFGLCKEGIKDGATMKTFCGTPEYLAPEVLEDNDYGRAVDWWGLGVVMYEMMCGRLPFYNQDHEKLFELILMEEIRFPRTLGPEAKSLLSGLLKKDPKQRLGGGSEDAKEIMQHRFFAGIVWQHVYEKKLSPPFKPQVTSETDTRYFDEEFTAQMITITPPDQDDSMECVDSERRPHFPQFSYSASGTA

Row | Compound | melting point | IC50 [1] | IC50 [2]
1 | Cc1nc2nc(-c3ccc(CN4CC(c5n[nH]c(-c6ccccn6)n5)C4)cc3)c(-c3ccccc3)c(NC(C)C)n2n1 [Example 45.2, isopropyl-(2-methyl-6-phenyl-5-{4-[3-(5-pyridin-2-yl-1H-[1,2,4]triazol-3-yl)-azetidin-1-ylmethyl]-phenyl}-[1,2,4]triazolo[1,5-a]pyrimidin-7-yl)-amine] | 176.8 °C | – | –
2 | CC(C)Nc1c(-c2ccccc2)c(-c2ccc(CN3CC(c4n[nH]c(-c5ccccn5)n4)C3)cc2)nc2nc(-c3ccccn3)nn12 [Example 68.0] | – | 0.024 µM | 0.088 µM
3 | CSc1nc2nc(-c3ccc(CN4CC(c5n[nH]c(-c6cccc(C)n6)n5)C4)cc3)c(-c3ccccc3)cn2n1 [Example 71.0, 5-(4-{3-[5-(6-methyl-pyridin-2-yl)-1H-[1,2,4]triazol-3-yl]-azetidin-1-ylmethyl}-phenyl)-2-methylsulfanyl-6-phenyl-[1,2,4]triazolo[1,5-a]pyrimidine] | – | 0.005 µM | 0.004 µM
4 | CSc1nc2nc(-c3ccc(CN4CCC(c5n[nH]c(-c6cnccn6)n5)CC4)cc3)c(-c3ccccc3)cn2n1 [Example 72.3, 2-methylsulfanyl-6-phenyl-5-{4-[4-(5-pyrazin-2-yl-1H-[1,2,4]triazol-3-yl)-piperidin-1-ylmethyl]-phenyl}-[1,2,4]triazolo[1,5-a]pyrimidine] | – | 0.026 µM | 0.08 µM
5 | COC(=O)c1cn2cc(-c3ccccc3)c(-c3ccc(CN4CC(c5n[nH]c(-c6ccccn6)n5)C4)cc3)nc2n1 [Example 74.1, 6-phenyl-7-{4-[3-[5-pyridine-2-yl-1H-[1,2,4]triazole-3-yl)azetidine-1-ylmethyl]-phenyl}-imidazo[1,2-a]pyrimidine-2-carboxylic acid methyl ester] | – | 0.01 µM | 0.017 µM
6 | OCc1cn2cc(-c3ccccc3)c(-c3ccc(CN4CC(c5n[nH]c(-c6ccccn6)n5)C4)cc3)nc2n1 [Example 75.0] | – | 0.072 µM | 0.124 µM
7 | Cc1nc2nc(-c3ccc(CN4CCC(c5n[nH]c(-c6ccccn6)n5)CC4)cc3)c(-c3cc(F)ccc3F)cn2n1 [Example 76.0, 6-(2,5-difluorophenyl)-2-methyl-5-{4-[4-(5-pyridine-2-yl-1H-[1,2,4]triazole-3-yl)-piperidine-1-ylmethyl]-phenyl}-[1,2,4]triazolo[1,5-a]pyrimidine] | – | 0.06 µM | 0.154 µM

Now from value to molecule:

Row | melting point | IC50 [1] | IC50 [2] | Compound
8 | – | 0.029 µM | 0.145 µM | CNc1c(-c2ccccc2)c(-c2ccc(CN3CC(c4n[nH]c(-c5ccccn5)n4)C3)cc2)nc2nc(-c3ccccn3)nn12 [Example 67.0]
9 | – | 0.014 µM | 0.016 µM | Cc1cccc(-c2nc(C3CN(Cc4ccc(-c5nc6nc(-c7ccccn7)nn6c(NC(C)C)c5-c5ccccc5)cc4)C3)n[nH]2)n1 [Example 69.0, isopropyl-(6-phenyl-2-pyridine-2-yl-5-{4-[3-[5-(6-methylpyridine-2-yl)-1H-[1,2,4]triazole-3-yl)-azetidine-1-ylmethyl]-phenyl}-[1,2,4]triazolo[1,5-a]pyrimidin-7-yl)-amine]
10 | – | 0.007 µM | 0.005 µM | c1ccc(-c2cn3nc(C4CC4)nc3nc2-c2ccc(CN3CC(c4n[nH]c(-c5ccccn5)n4)C3)cc2)cc1 [Example 70.0]
11 | – | 0.077 µM | 0.222 µM | CSc1nc2nc(-c3ccc(CN4CCC(c5n[nH]c(-c6ncccn6)n5)CC4)cc3)c(-c3ccccc3)cn2n1 [Example 72.2, 2-methylsulfanyl-6-phenyl-5-{4-[4-(5-pyrimidin-2-yl-1H-[1,2,4]triazol-3-yl)-piperidin-1-ylmethyl]-phenyl}-[1,2,4]triazolo[1,5-a]pyrimidine]
12 | – | 0.012 µM | 0.014 µM | COC(=O)c1cn2cc(-c3ccccc3)c(-c3ccc(CN4CC(c5n[nH]c(-c6cccc(C)n6)n5)C4)cc3)nc2n1 [Example 74.0, 7-(4-{3-[5-(6-methylpyridine-2-yl)-1H-[1,2,4]triazole-3-yl]-azetidine-1-ylmethyl}-phenyl)-6-phenyl-imidazo[1,2-a]pyrimidine-2-carboxylic acid methyl ester]
